The values that follow are results of earlier work, collected in US20130183261A1, “METHOD AND COMPOSITION FOR DELIVERING ACTIVE INGREDIENT INTO AIR, AND USE THEREOF” (priority 2010, published 2013).

The conditions of this data set: at 25° C.; neat solvent.

Take `CCCOC(C)COC(C)CO` (stereo not shown) [DPnP, dipropylene glycol n-propyl ether]: the Viscosity is 11.4 mPa·s.
